For assay [1], the target named is T1, Fatty acid synthase (Homo sapiens, UniProt P49327). The assay can be described thus: FAS thioesterase domain inhibitors, dose response, biochemical, endpoint fluorescence intensity, uHTS hits (AID 624327).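 Further: fluorescence from hydrolysis of an O-methyl fluorescein acyl ester substrate by the enzyme.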 In kind it is functional.
Assay [2] addresses T1, Fatty acid synthase. In words: FAS thioesterase domain inhibitors, dose response, biochemical, kinetic fluorescence intensity (AID 624326).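 Further: rate of fluorescence rise from hydrolysis of a fluorogenic O-methyl fluorescein ester substrate.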 In kind it is functional.
Assay [3] is described as follows: Luminescence Cell-Based Dose Retest to Confirm Inhibitors of Cancer Stem Cells. [Related pubchem assays (depositor defined):AID2717, AID2721]. It is filed as functional. The following applies: Homo sapiens.
The subject of a further assay is INS1. The assay can be described thus: beta cell apoptosis inhibitors, cytokine rescue, dose response, luminescence, retest (AID 449756).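 Further: cell death triggered by IL-1 beta plus TNF-alpha plus IFN-gamma mixture; protective hits raise ATP signal compared with cytokine alone wells.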 In kind it is functional, cell-based. The following applies: Rattus norvegicus.
Assay [4] can be described thus: Shn3 3'UTR reporter inhibitors, dose response, cell-based, Clone20 osteoblasts, firefly luciferase, cherry-picked (AID 624132).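 Further: firefly luciferase luminescence from reporter carrying the Shn3 3'UTR in osteoblasts.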 It is filed as functional.
A short description of assay [5]: HepG2 cell cytotoxicity, dose response, cytotoxicity control for Shn3 inhibitor project, CellTiter-Glo, cherry-picked (AID 624134). In kind it is functional, cell-based. On the technique in general: Cellular ATP, detected with luciferase, serves as a proxy for viable cell number.
A short description of assay [6]: control 3'UTR Renilla luciferase suppression, dose response, counter-screen for Shn3 inhibitor project, cell-based, Clone20-Shn3RL, cherry-picked (AID 624133). It is filed as functional.
Another assay addresses Nonstructural protein 1 (Influenza A virus, UniProt Q194T2). It is filed as functional, Influenza A virus (A/California/07/2009(H1N1)).
Assay [7] in a line: inhibitors of firefly luciferase expression or activity, dose response, H4 neuroglioma cells, luminescence (AID 1990). It is filed as functional, cell-based.
A short description of assay [8]: Luminescence Cell-Based Dose Response HTS to Identify Inhibitors of 5'UTR Stem-Loop Driven Prion Protein mRNA Translation in H4 Neuroglioblastoma Cells. [Related pubchem assays: 1827 (Project Summary), 1813 (Primary HTS)]. In kind it is functional.
Assay [9] is described as follows: inhibitors of SNCA 5'UTR-driven reporter translation, confirmation, H4 neuroglioma cells, luminescence (AID 1988). It is filed as functional, cell-based.
In assay [10] the target is T2, Cytochrome P450 3A4 (Homo sapiens, UniProt P08684). As to conditions: Potency.
For assay [11], the target named is Luciferin 4-monooxygenase (Photinus pyralis, UniProt P08659). In words: firefly luciferase enzyme inhibitors, dose response, biochemical, luminescence (AID 1891).
A short description of assay [12]: Luminescence Cell-Based Dose Confirmation HTS to Identify Inhibitors of Platelet Dense Granule Release. [Related pubchem assays: 1663 (Primary HTS), 1678 (Summary of Project)]. In kind it is functional.
Assay [13] concerns the target T2, Cytochrome P450 3A4.
Another assay deals with P388/ADR. In words: cells. In kind it is functional. The following applies: Mus musculus.
The next assay relates to SN12K1. In words: cells. The following applies: Homo sapiens. It is filed as functional.
A further assay relates to P388. In words: cells. In kind it is functional. The following applies: Mus musculus.

A word on the IC50: it is the concentration that gives 50% inhibition. What is called AC50 is the concentration at which the activity in the assay is half-maximal. The EC50 is the concentration at which the effect is half-maximal. A word on the GI50: it is the concentration giving 50% growth inhibition.

Where a name gives a salt, the structure may show the parent alone. Active and inactive are the calls of the source.

T2 sequence (P08684 whole entry): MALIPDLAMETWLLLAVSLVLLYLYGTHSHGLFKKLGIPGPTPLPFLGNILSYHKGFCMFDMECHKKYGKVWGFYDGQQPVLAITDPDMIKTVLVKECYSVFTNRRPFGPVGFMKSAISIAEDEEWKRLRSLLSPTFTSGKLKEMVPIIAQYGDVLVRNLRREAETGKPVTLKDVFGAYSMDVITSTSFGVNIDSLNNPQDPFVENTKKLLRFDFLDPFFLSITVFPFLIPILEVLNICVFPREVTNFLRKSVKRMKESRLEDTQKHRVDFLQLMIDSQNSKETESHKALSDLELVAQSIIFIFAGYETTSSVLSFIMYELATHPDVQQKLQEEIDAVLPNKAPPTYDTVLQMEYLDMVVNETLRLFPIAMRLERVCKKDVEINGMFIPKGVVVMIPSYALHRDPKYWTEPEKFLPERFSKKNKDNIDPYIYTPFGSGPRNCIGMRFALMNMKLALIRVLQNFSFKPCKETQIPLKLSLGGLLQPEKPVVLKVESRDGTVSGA
T1 sequence (P49327 whole entry, the tested form may be a part): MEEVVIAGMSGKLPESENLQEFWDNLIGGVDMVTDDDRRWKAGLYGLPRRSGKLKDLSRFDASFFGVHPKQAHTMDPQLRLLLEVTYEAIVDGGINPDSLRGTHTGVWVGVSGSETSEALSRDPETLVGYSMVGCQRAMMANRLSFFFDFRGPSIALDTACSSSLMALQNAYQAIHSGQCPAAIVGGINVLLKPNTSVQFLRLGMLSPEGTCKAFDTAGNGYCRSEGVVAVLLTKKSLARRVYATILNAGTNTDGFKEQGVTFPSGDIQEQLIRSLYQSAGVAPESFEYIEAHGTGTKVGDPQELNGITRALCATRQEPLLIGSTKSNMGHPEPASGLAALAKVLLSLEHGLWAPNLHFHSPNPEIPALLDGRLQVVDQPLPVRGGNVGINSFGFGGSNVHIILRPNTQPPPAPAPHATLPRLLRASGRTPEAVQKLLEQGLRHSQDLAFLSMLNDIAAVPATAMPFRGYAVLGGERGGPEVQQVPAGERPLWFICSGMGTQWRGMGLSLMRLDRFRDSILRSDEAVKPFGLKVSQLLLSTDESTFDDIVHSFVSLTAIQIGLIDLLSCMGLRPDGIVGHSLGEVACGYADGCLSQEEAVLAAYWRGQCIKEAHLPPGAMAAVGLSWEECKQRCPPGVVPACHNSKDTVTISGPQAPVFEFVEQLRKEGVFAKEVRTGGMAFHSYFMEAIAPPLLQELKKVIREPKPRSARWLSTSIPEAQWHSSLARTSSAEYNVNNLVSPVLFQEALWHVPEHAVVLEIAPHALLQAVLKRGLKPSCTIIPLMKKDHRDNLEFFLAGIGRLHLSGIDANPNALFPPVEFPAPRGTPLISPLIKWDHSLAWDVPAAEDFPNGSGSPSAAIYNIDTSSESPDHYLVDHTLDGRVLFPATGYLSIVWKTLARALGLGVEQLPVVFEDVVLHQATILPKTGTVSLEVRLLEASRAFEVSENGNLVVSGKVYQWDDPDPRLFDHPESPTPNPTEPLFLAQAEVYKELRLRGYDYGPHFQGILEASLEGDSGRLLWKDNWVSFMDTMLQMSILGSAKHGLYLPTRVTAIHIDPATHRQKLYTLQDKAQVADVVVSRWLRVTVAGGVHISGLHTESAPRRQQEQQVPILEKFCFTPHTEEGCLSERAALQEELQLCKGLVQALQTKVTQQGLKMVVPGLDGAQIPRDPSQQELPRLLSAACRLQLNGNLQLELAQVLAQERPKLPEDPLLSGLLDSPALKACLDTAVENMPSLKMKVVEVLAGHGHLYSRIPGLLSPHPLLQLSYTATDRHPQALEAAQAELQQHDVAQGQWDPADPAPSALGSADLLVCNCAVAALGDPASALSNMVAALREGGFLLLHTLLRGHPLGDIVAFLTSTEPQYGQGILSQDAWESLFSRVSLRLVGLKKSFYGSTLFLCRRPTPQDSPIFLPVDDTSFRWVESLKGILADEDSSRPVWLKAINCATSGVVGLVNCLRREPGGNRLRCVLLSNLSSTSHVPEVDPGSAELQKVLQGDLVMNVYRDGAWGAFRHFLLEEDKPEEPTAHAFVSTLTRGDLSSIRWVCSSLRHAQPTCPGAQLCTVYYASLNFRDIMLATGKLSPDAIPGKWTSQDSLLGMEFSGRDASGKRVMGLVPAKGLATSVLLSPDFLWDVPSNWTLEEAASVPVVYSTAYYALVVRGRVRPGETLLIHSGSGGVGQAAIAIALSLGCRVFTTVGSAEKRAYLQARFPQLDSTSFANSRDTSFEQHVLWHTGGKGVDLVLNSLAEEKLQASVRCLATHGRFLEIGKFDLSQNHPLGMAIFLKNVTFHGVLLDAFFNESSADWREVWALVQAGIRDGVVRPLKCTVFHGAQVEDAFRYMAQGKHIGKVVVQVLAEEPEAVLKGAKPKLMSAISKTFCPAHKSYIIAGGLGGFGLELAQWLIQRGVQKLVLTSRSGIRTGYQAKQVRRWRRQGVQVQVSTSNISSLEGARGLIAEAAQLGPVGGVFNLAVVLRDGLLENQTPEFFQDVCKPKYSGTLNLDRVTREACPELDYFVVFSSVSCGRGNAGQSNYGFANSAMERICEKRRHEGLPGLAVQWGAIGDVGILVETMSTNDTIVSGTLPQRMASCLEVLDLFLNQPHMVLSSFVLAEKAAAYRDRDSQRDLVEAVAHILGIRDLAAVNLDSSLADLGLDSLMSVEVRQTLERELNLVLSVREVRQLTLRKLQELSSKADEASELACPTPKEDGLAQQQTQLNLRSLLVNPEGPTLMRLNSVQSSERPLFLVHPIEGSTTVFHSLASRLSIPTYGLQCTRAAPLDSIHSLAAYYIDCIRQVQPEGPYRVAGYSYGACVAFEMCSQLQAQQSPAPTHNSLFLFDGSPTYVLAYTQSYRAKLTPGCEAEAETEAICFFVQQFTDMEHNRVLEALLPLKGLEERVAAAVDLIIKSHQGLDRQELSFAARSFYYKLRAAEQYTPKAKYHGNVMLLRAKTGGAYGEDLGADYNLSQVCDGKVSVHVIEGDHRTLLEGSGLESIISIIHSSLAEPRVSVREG
Chain of Nonstructural protein 1 (Q194T2 whole entry): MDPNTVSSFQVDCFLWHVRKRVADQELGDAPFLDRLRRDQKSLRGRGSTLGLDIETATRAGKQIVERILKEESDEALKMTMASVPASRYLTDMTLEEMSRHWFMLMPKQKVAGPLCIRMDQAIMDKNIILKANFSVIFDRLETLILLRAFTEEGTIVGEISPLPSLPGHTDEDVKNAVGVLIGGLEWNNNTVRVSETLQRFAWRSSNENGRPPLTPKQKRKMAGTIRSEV
Chain of Luciferin 4-monooxygenase (P08659 whole entry): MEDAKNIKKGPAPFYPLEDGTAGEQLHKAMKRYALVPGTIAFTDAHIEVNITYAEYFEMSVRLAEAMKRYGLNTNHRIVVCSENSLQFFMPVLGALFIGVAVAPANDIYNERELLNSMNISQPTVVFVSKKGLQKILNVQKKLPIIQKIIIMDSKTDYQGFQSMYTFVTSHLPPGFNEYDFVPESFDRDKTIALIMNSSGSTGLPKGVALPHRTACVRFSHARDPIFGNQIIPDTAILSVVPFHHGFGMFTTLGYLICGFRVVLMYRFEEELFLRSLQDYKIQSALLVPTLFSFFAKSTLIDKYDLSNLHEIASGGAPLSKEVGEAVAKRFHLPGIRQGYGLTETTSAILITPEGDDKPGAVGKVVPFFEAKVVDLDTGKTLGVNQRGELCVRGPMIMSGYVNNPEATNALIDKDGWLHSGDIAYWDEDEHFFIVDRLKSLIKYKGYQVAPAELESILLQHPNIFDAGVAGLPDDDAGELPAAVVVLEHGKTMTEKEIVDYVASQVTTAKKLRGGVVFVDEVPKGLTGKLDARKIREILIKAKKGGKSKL

For the compound `O=C(COC(=O)c1cc([N+](=O)[O-])ccc1N1CCOCC1)Nc1c(Cl)cccc1Cl`, the results for the IC50 at Fatty acid synthase [1] and at Fatty acid synthase [2] were 7.85 µM (active) and 6.21 µM (active), respectively.

Turning to `O=C(/C=C/c1c[nH]c2ccccc12)c1cccc2ccccc12`, the AC50 in assay [3] was 2.92 µM (active).

Turning to `Cc1cc(N2CCCC2=O)cc(C)c1S(=O)(=O)NCCOc1ccc(C(C)(C)C)cc1`, the AC50 with INS1 is 2.58 µM (active); in assay [4] it was 1.15 µM (active); in assay [5], 51.4 µM (active); in assay [6] it was 2.36 µM (active).

As for `CC(C)(C)c1cc(CSC(S)=NC2CCS(=O)(=O)C2)c(Br)c(C(C)(C)C)c1` (stereo not drawn), the AC50 in assay [3] was 3.19 µM (active).

Turning to `O=C1[C@@H]2Cc3c([nH]c4ccccc34)C(c3ccccc3)N2C(=O)CN1C1CCN(Cc2ccccc2)CC1` (stereo partly drawn), the IC50 on Nonstructural protein 1 is > 100 µM (active).

Take `CC(C)(C)c1ccc(OCCON2C(=O)CCC2=O)c(Cl)c1`: the concentration for a half-maximal effect (EC50) in assay [7] was > 120 µM (not active); in [8], 13.6 µM (active); in assay [9] it was 18.3 µM (active).

`Nc1[nH]c(N=NC(=O)c2ccccc2O)c2ccccc12`: the IC50 on Nonstructural protein 1 was 24.5 µM (active).

`CC(C)Oc1ccc(C2CC(=O)N(Nc3ccc([N+](=O)[O-])cc3[N+](=O)[O-])C2=O)cc1` (stereo not drawn): the half-inhibitory concentration (IC50) is 0.577 µM (active) on Fatty acid synthase [1] and 0.846 µM (active) on Fatty acid synthase [2].

For the compound `Cn1c(N)c(C(=O)COC(=O)c2cc(C3CC3)nc3ccccc23)c(=O)n(Cc2ccccc2)c1=O`, the half-maximal activity concentration (AC50) at Cytochrome P450 3A4 [10] is 15.8 µM (inconclusive).

With `COc1ccccc1/C=C1\SC(NNC(=O)c2cccc(Br)c2)=NC1=O`, the AC50 in assay [3] was 2.09 µM (active).

Consider `COc1ccc(NC(=O)Cn2nnc(-c3ccccc3NS(=O)(=O)c3ccccc3)n2)cc1`, for which the concentration at half-maximal activity (AC50) in [4] was 0.485 µM (active); in assay [5], 9.81 µM (active); in [6] it was 16.1 µM (active).

In the case of `COc1ccccc1OCC(O)Cn1c(=N)n(Cc2ccccc2)c2ccccc21` (stereo not drawn), the concentration at half-maximal activity (AC50) in [4] is 4.01 µM (active); in assay [5], 22.1 µM (active); in assay [6] it was 10.7 µM (active).

As to `CCCCCCCN1C(Nc2ccccc2)=NC[C@@H]1Cc1ccccc1`, the AC50 in [4] was 4.82 µM (active); in assay [5] it was 23 µM (active); in [6] it was 6.34 µM (active).

`O=C(CCNC(=O)c1ccc([N+](=O)[O-])cc1)NCCc1ccccc1`: the IC50 was 10.3 µM (active) on Fatty acid synthase [1] and 11.2 µM (active) at Fatty acid synthase [2].

In the case of `CCOC(=O)c1[nH]c(C)c(C(=O)OCc2ccccc2F)c1C`, in [3], the half-maximal activity concentration (AC50) was 0.633 µM (active).

In the case of `COc1ccc(-c2cc(-c3cccnc3)c(C#N)c(N)n2)cc1`, the half-maximal effective concentration (EC50) in assay [7] is 22 µM (active); in assay [8], 12.7 µM (active); in [9] it was 23 µM (active).

Regarding `CC(C)(/N=N/C(C)(C)C(=N)N)C(=N)N`, at Cytochrome P450 3A4 [10], the AC50 was 39.8 µM (inconclusive).

With `COc1cc2cc(C(=O)N3CCN(Cc4ccc5c(c4)OCO5)CC3)[nH]c2cc1OC`, the concentration for a half-maximal effect (EC50) in assay [7] is reported as > 120 µM (not active); in assay [8], > 120 µM (not active); in assay [9] it was > 120 µM (not active); in [11], > 112 µM (not active); in [12] it was > 112 µM (not active).

Take `COC1=C[C@H]2[C@H]3Cc4ccc(OC)c(O)c4[C@@]2(CCN3C)CC1=O`: the concentration at half-maximal activity (AC50) on Cytochrome P450 3A4 [10] is 31.6 µM (inconclusive).

Take `COc1ccc(Oc2c(C)oc3cc(OC(=O)N4CCOCC4)ccc3c2=O)cc1`: the EC50 is > 120 µM (not active) in assay [7], > 120 µM (not active) in assay [8] and 59.2 µM (active) in assay [9].

For `Oc1cc(Cl)ccc1Cl`, the half-maximal activity concentration (AC50) at Cytochrome P450 3A4 [10] is 31.6 µM (inconclusive).

Regarding `COC(=O)C(C(=O)OC)C1O[C@@]23COCCC2(C)C3c2ccccc21` (stereo partly drawn), at Cytochrome P450 3A4 [10], the AC50 was 3.16 µM (inconclusive).

On to `CCCCCCn1c(SCC(C)C)nc2c1c(=O)[nH]c(=O)n2C`, for which the 50% effective concentration (EC50) is 15.4 µM (active) in assay [7], > 120 µM (not active) in [8] and 18.8 µM (active) in [9].

With `Cc1ccc([N+](=O)[O-])cc1NC(=O)CCSc1ccc(Cl)cc1`, the results for the IC50 on Fatty acid synthase [1] and on Fatty acid synthase [2] were 6.23 µM (active) and 7.75 µM (active), respectively.

For the compound `CCOC(=O)CSC1=C(C#N)C(c2sccc2C)CC(=O)N1` (stereo not drawn), the figures for the half-maximal activity concentration (AC50) (in [3]; at Cytochrome P450 3A4 [13]) were 0.722 µM (active) and 15.8 µM (inconclusive), respectively.

In the case of `CCc1cccc(NC(=O)COC(=O)c2cc([N+](=O)[O-])ccc2N2CCOCC2)c1`, the IC50 was 0.29 µM (active) at Fatty acid synthase [1] and 0.393 µM (active) at Fatty acid synthase [2].

As for `COc1cc(-c2ccc3oc(-c4cccc(C)c4)c(C#CC4(O)CCCCC4)c3c2)cc(OC)c1OC`, in assay [3], the concentration at half-maximal activity (AC50) was 8.67 µM (active).

For `Cc1ccc(-c2nnc(COC(=O)c3cc(O)nc4ccccc34)o2)cc1`, the half-maximal inhibitory concentration (IC50) was 10.4 µM (active) at Fatty acid synthase [1] and 9.54 µM (active) on Fatty acid synthase [2].

As to `CN(C)C(=O)N(CCCl)N=O`, the GI50 in the assay with P388/ADR, in the assay with SN12K1 and in the assay with P388 was > 100 µM (inactive) throughout.

As to `CCCCc1nccc2c(C)c3[nH]c4ccccc4c3cc12`, the GI50 in the assay on P388/ADR is 2 µM (inactive); with SN12K1 it was 2.14 µM (inactive); in the assay with P388 it was 1.77 µM (inactive).

In the case of `CN(C)CC1CC/C(=C\c2ccc(Cl)cc2)C1=O` (stereo not drawn), the concentration for 50% growth inhibition (GI50) in the assay on P388/ADR is 0.509 µM (active); in the assay with SN12K1, 2.21 µM (inactive); in the assay on P388, 0.31 µM (active).

For `Cc1ccc(S(=O)(=O)Oc2cc(-c3ccccc3)nc3ccccc23)cc1`, the GI50 in the assay on P388/ADR was 1.91 µM (inactive); in the assay on SN12K1, 1.61 µM (inactive); with P388 it was 1.15 µM (inactive).

`O=S1(=O)C(=C(c2ccccc2)c2ccccc2)S(=O)(=O)c2ccccc21`: the GI50 in the assay on P388/ADR is > 100 µM (inactive); in the assay on SN12K1 it was 28.2 µM (inactive); in the assay with P388, > 31.6 µM (inactive).

Regarding `CCCCCCCCCCCC[S+](C)C`, the results for the GI50 in the assay with P388/ADR, in the assay on SN12K1 and with P388 were 27.8 µM (inactive), 5.33 µM (inactive) and 0.236 µM (active), respectively.

As for `COc1ccc2c(c1)CCc1c(CO)c(COC(=O)NC(C)C)n(C)c1-2`, the GI50 is 2.2 µM (inactive) in the assay with P388/ADR, 3.32 µM (inactive) in the assay with SN12K1 and 1.17 µM (inactive) in the assay with P388.

As for `O=C(COC(=O)c1cc([N+](=O)[O-])ccc1N1CCOCC1)NCc1ccccc1`, the half-maximal inhibitory concentration (IC50) was 0.841 µM (active) on Fatty acid synthase [1] and 0.683 µM (active) on Fatty acid synthase [2].

Regarding `O=c1[nH]c(=O)n([C@H]2CCCO2)cc1F`, the GI50 is 37.7 µM (inactive) in the assay on P388/ADR, 369 µM (inactive) in the assay on SN12K1 and 24.3 µM (inactive) in the assay on P388.

`Cc1c2ccccc2c(C)c2c1ccc1ccccc12`: the half-maximal activity concentration (AC50) at Cytochrome P450 3A4 [10] was 12.6 µM (inconclusive).

With `O=C(/C=C/c1ccccc1)c1ccc(O)cc1` [4'-HYDROXYCHALCONE], the AC50 at Cytochrome P450 3A4 [10] is 39.8 µM (inconclusive).

Turning to `O=C1C=CC(=O)c2c(O)cccc21` [JUGLONE], on Cytochrome P450 3A4 [10], the half-maximal activity concentration (AC50) was 39.8 µM (inconclusive).

Regarding `CNNCc1ccc(C(=O)NC(C)C)cc1` [PROCARBAZINE HYDROCHLORIDE], the GI50 in the assay with P388/ADR is > 485 µM (inactive); in the assay with SN12K1, > 456 µM (inactive); with P388, > 500 µM (inactive).

Values taken from ChEMBL document CHEMBL1201862, “PubChem BioAssay data set” (2004).
